Measured values from patent publication US6569878B1, “Substituted 4-amino-thiazol-2-yl compounds as cyclin-dependent kinase inhibitors” (Agouron Pharmaceuticals Inc., priority 1997, dated 2003).

Legend:
[1] = target: T1, complex of human CDK4 and cyclin D3 (Homo sapiens, UniProt P11802); assay: Inhibition of CDK4/cyclin D retinoblastoma kinase activity (D-type cyclin is D3); format: biochemical; details: superscript a: D-type cyclin is D3; apparent Ki; read-out: Ki CDK 4/D
T1 construct: made in house; host or cells: insect cells, co-infected with baculovirus
T1 sequence (P11802 whole entry): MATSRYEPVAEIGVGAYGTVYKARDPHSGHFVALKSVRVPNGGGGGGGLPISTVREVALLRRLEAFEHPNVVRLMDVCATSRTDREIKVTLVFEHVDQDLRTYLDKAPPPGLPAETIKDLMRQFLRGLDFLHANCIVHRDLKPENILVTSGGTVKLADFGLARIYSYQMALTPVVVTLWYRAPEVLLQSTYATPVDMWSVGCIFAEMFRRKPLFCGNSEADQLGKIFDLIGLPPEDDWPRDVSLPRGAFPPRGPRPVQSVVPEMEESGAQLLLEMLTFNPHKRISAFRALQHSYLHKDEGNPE
T1 sequence (P30281 whole entry partner): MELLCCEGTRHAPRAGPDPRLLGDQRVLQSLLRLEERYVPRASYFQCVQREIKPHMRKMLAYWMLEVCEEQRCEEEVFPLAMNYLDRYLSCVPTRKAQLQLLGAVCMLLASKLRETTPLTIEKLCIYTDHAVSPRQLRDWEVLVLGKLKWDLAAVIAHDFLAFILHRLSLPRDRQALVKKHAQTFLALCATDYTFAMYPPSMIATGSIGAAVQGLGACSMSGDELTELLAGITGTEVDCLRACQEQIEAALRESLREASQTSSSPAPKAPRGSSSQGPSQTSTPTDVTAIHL
Procedure, shortened: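 Apparent Ki derived by fitting background-corrected activity to competitive (or, for tight binders, competitive tight-binding) equations with measured ATP Km. Rb phosphorylation by radiolabelled ATP was measured at 30°C, 20 min standard or 60 min at 5 nM complex for tight binders, via nitrocellulose capture and phosphorimager.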

CDK2/cyclin A = target: T2, CDK2/cyclin A (Homo sapiens, UniProt P24941); assay: Inhibition of CDK2/cyclin A retinoblastoma kinase activity; format: biochemical; details: read-out: Ki CDK 2/A
T2 construct: made in house; host or cells: CDK2: insect cells (baculovirus); cyclin A: E. coli, then limited proteolysis
Method: (§1) Cyclin-dependent kinase activity was measured by quantifying the enzyme-catalyzed, time-dependent incorporation of radioactive phosphate from [^32P]ATP or [^33P]ATP into a protein substrate. Unless noted otherwise, assays were performed in 96-well plates in a total volume of 50 μL, in the presence of 10 mM HEPES (N-[2-hydroxyethyl]piperazine-N′-[2-ethanesulfonic acid]) (pH 7.4), 10 mM MgCl2, 25 μM adenosine triphosphate (ATP), 1 mg/mL ovalbumin, 5 μg/mL leupeptin, 1 mM dithiothreitol, 10 mM β-glycerophosphate, 0.1 mM sodium vanadate, 1 mM sodium fluoride, 2.5 mM ethylene glycol-bis(β-aminoethyl ether)-N,N,N′N′-tetraacetic acid (EGTA), 2% (v/v) dimethylsulfoxide, and 0.03-0.4 μCi [^32/33P]ATP per reaction. Reactions were initiated with enzyme, incubated at 30° C., and terminated after 20 minutes by the addition of ethylenediaminetetraacetic acid (EDTA) to 250 mM. The phosphorylated substrate was then captured on a nitrocellulose or phosphocellulose membrane using a 96-well filtration manifold, and unincorporated radioactivity was removed by repeated washing with 0.85% phosphoric acid. Radioactivity was quantified by exposing the dried membranes to a phosphorimager.
(§2) Apparent Ki values were measured by assaying enzyme activity in the presence of different inhibitor compound concentrations and subtracting the background radioactivity measured in the absence of enzyme. The kinetic parameters (kcat, Km for ATP) were measured for each enzyme under the usual assay conditions by determining the dependence of initial rates on ATP concentration. Inhibition data were fit to an equation for competitive inhibition using Kaleidagraph (Synergy Software), or were fit to an equation for competitive tight-binding inhibition using the software KineTic (BioKin, Ltd.).
CDK2 was purified using published methodology (Rosenblatt et al., “Purification and Crystallization of Human Cyclin-dependent Kinase 2,” J. Mol. Biol., vol. 230, 1993, pp. 1317-1319) from insect cells that had been infected with a baculovirus expression vector. […] Purified, proteolyzed cyclin A was included in the assay at a three- to five-fold molar excess to CDK2. Alternatively, a complex of CDK2 and proteolyzed cyclin A was prepared and purified by gel filtration. The substrate for this assay was the same Rb substrate fragment used for the CDK4 assays, and the methodology of the CDK2/cyclin A and the CDK4/cyclin D3 assays was essentially the same, except that CDK2 was present at 150 nM or 5 nM. Ki values were measured as described above.

[2] = target: T3, human CDK1 (cdc2) and cyclin B (Homo sapiens, UniProt P06493); assay: Inhibition of CDK1(cdc2)/cyclin B histone H1 kinase activity; format: biochemical; details: read-out: Ki CDK 1/B
T3 construct: purchased New England Biolabs (Beverly Mass.)
T3 sequence (P06493 whole entry): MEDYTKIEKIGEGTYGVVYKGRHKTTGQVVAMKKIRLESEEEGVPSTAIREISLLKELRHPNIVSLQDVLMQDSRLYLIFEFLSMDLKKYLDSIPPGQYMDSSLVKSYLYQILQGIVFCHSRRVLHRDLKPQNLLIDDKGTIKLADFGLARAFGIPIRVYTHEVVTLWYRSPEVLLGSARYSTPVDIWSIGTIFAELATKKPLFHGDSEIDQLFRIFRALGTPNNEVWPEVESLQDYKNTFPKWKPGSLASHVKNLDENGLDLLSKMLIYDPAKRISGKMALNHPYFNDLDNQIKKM
T3 sequence (P14635 whole entry partner): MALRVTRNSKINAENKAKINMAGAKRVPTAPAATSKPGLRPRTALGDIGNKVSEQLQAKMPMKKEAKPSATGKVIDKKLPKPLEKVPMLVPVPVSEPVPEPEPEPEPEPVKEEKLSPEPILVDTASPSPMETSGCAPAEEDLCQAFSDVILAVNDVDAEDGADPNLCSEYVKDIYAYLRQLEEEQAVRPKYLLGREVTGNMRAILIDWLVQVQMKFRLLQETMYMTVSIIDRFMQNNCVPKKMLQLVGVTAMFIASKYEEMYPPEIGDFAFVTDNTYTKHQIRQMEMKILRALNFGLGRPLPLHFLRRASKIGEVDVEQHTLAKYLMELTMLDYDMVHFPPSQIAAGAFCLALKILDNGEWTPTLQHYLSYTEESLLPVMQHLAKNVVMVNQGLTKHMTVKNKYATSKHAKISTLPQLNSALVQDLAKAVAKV
Method: as §1, §2
The complex of human CDK1 (cdc2) and cyclin B was purchased from New England Biolabs (Beverly Mass.). Alternatively, a CDK1/glutathione-S-transferase-cyclin B1 complex was purified using glutathione affinity chromatography from insect cells that had been co-infected with the corresponding baculovirus expression vectors. The assay was executed as described above at 30° C. using 2.5 units of cdc2/cyclin B, 10 μg Histone H1 protein, and 0.1-0.3 μCi [^32/33P]ATP per assay. Phosphorylated histone substrate was captured by microfiltration on a phosphocellulose P81 membrane and quantified using a phosphorimager as described above. Ki values were measured using the described curve-fitting programs.

U2-OS = assay: Inhibition of cell growth, MTT assay, U2-OS; format: cell-based; details: for IC50 / IC90: Homo sapiens, U2OS; for % inhibition of growth in parentheses after >25: concentration not given
Method: (§3) The water-insoluble purple formazan product was then detected spectrophotometrically. […] Plates were incubated for four hours before addition of inhibitor compounds. Different concentrations of inhibitor compounds were added in 0.5% (v/v) dimethylsulfoxide (15 μL/well), and cells were incubated at 37° C. (5% CO2) for four to six days (depending on cell type). At the end of the incubation, MTT was added to a final concentration of 0.2 mg/mL, and cells were incubated for 4 hours more at 37° C. After centrifugation of the plates and removal of medium, the absorbance of the formazan (solubilized in dimethylsulfoxide) was measured at 540 nm.

Saos-2 = assay: Inhibition of cell growth, MTT assay, Saos-2; format: cell-based; details: Saos-2, MTT assay; for IC50 / IC90: Homo sapiens
Method: as §3

HCT116 = assay: Inhibition of cell growth, MTT assay, HCT116; format: cell-based, human; details: for IC50 / IC90: Homo sapiens, HCT-116
Method: as §3

Row | Ki [1] | Ki (CDK2/cyclin A) | Ki [2] | IC50 (U2-OS) | IC90 (U2-OS) | IC50 (HCT116) | IC90 (HCT116) | Structure (SMILES) | IC50 (Saos-2) | IC90 (Saos-2) | % inhibition of growth in parentheses after >25 (U2-OS) | % inhibition of growth in parentheses after >25 (HCT116; concentration not given) | % inhibition of growth in parentheses after >25 (Saos-2; concentration not given)
1 | 0.083 µM | 0.028 µM | 0.035 µM | 4.7 µM | 19 µM |  |  | CN(C)S(=O)(=O)c1ccc(Nc2nc(N)c(C(=O)c3c(F)cccc3F)s2)cc1 [C(109), 4-[4-Amino-5-(2,6-difluoro-benzoyl)-thiazol-2-ylamino]-N,N-dimethyl-benzenesulfonamide] | 1.5 µM | 14 µM |  |  | 
2 |  | 0.482 µM | 0.827 µM |  |  |  |  | CN1CCN(c2ccc(Nc3nc(N)c(C(=O)c4c(Cl)cccc4Cl)s3)cc2)CC1 [C(71), {4-Amino-2-[4-(4-methyl-piperazin-1-yl)-phenylamino]-thiazol-5-yl}-(2,6-dichloro-phenyl)-methanone] |  |  |  |  | 
3 |  | 0.22 µM | 0.325 µM |  |  |  |  | CN1CCN(c2ccc(Nc3nc(N)c(C(=O)c4c(F)cccc4F)s3)cc2)CC1 [C(80), {4-Amino-2-[4-(4-methyl-piperazin-1-yl)-phenylamino]-thiazol-5-yl}-(2,6-difluoro-phenyl)-methanone] |  |  |  |  | 
4 | 0.0102 µM | 0.0135 µM | 0.022 µM |  |  |  |  | Nc1nc(Nc2ccc(S(=O)(=O)NCC3CCNCC3)cc2)sc1C(=O)c1c(F)cccc1F [J(4), 4-[4-Amino-5-(2,6-difluoro-benzoyl)-thiazol-2-ylamino]-N-piperidin-4-ylmethyl-benzenesulfonamide] |  |  |  |  | 
5 |  | 0.62 µM | 0.911 µM |  |  |  |  | CN1CCN(c2ccc(Nc3nc(N)c(C(=O)c4c(F)cccc4C(F)(F)F)s3)cc2)CC1 [C(100), {4-Amino-2-[4-(4-methyl-piperazin-1-yl)-phenylamino]-thiazol-5-yl}-(2-fluoro-6-trifluoromethyl-phenyl)-methanone] |  |  |  |  | 
6 | 0.121 µM | 0.12 µM | 0.077 µM |  |  |  |  | CN1CCN(S(=O)(=O)c2ccc(Nc3nc(N)c(C(=O)c4c(F)cccc4F)s3)cc2)CC1 [C(116), {4-Amino-2-[4-(4-methyl-piperazine-1-sulfonyl)-phenylamino]-thiazol-5-yl}-(2,6-difluoro-phenyl)-methanone] |  |  |  |  | 
7 | 0.023 µM | 0.0068 µM | 0.009 µM | 1.4 µM | 4.8 µM |  |  | CNS(=O)(=O)c1ccc(Nc2nc(N)c(C(=O)c3c(F)cccc3F)s2)cc1 [C(108), 4-[4-Amino-5-(2,6-difluoro-benzoyl)-thiazol-2-ylamino]-N-methyl-benzenesulfonamide] | 0.31 µM | 3.2 µM |  |  | 
8 | 0.022 µM | 0.145 µM |  | 6.5 µM | > 25 µM | 6.1 µM | 25 µM | Cc1ccc(C(=O)c2sc(Nc3ccc4nc[nH]c4c3)nc2N)c(C)c1 [C(20), [4-Amino-2-(1H-benzoimidazol-6-ylamino)-thiazol-5-yl]-(2,4-dimethyl-phenyl)-methanone] | 4.9 µM | 13 µM | (74%) |  | 
9 | 0.0085 µM | 0.392 µM |  | 10 µM | 21 µM | 3.9 µM | 11 µM | CC(=O)N1CCN(c2ccc(Nc3nc(N)c(C(=O)c4c(Cl)cccc4Cl)s3)cc2)CC1 [C(97), 2-[4-(1-Acetyl-piperazin-4-yl)-phenylamino]-4-amino-thiazol-5-yl-(2,6-dichlorophenyl)-methanone] | 9 µM | 20 µM |  |  | 
10 | 0.03 µM | 0.026 µM |  | 10 µM | 20 µM | 4.2 µM | 7.8 µM | Cc1ncsc1C(=O)c1sc(Nc2ccc(S(N)(=O)=O)cc2)nc1N [C(47), 4-[4-Amino-5-(4-methyl-thiazole-5-carbonyl)-thiazol-2-ylamino]-benzenesulfonamide] | 2.5 µM | 5.1 µM |  |  | 
11 | 0.011 µM | 0.023 µM |  | 12 µM | 22 µM | 9 µM | 19 µM | Cc1ccc(C(=O)c2sc(Nc3ccc(S(N)(=O)=O)cc3)nc2N)c(C)c1 [C(35), 4-[4-Amino-5-(2,4-dimethyl-benzoyl)-thiazol-2-ylamino]-benzenesulfonamide] | 8 µM | 20 µM |  |  | 
12 | 0.0158 µM | 0.277 µM |  | 15 µM | > 25 µM | 9 µM | 23 µM | Cc1ccsc1C(=O)c1sc(Nc2ccc3nc[nH]c3c2)nc1N [C(19), [4-Amino-2-(1H-benzoimidazol-6-ylamino)-thiazol-5-yl]-(3-methyl-thiophen-2-yl)-methanone] | 7 µM | 18 µM | 77% |  | 
13 | 0.021 µM | 0.216 µM |  | 3 µM | 5.5 µM | 1.7 µM | 3.8 µM | CC(=O)N1CCN(c2ccc(Nc3nc(N)c(C(=O)c4c(F)cccc4F)s3)cc2)CC1 [C(111), 2-[4-(1-Acetyl-piperazin-4-yl)-phenylamino]-4-amino-thiazol-5-yl-(2,6-difluorophenyl)-methanone] | 3.8 µM | 5.9 µM |  |  | 
14 | 0.011 µM | 0.105 µM |  | 15 µM | 23 µM | 8.5 µM | 17 µM | Nc1nc(Nc2ccc3nc[nH]c3c2)sc1C(=O)c1c(Cl)cccc1Cl [C(52), [4-Amino-2-(1H-benzoimidazol-6-ylamino)-thiazol-5-yl]-(2,6-dichloro-phenyl)-methanone] | 9 µM | 22 µM |  |  | 
15 | 0.0442 µM | 0.467 µM |  | > 25 µM |  | > 25 µM |  | CC(=O)Nc1ccc(Cl)c(C(=O)c2sc(Nc3ccc4nc[nH]c4c3)nc2N)c1Cl [C(82), N-{3-[4-Amino-2-(1H-benzoimidazol-6-ylamino)-thiazole-5-carbonyl]-2,4-dichloro-phenyl}-acetamide] | > 25 µM |  | 1% | 1% | 15%
16 | 0.0154 µM | 0.164 µM |  | 7.1 µM | 12 µM | 2.7 µM | 7 µM | NC(=O)N1CCN(c2ccc(Nc3nc(N)c(C(=O)c4c(F)cccc4F)s3)cc2)CC1 [C(123), {4-Amino-2-[4-(4-carbamoyl-piperazin-1-yl)-phenylamino]-thiazol-5-yl}-(2,6-difluoro-phenyl)-methanone] | 2.9 µM | 5.7 µM |  |  | 

Row | Structure (SMILES) | Ki [1] | Ki (CDK2/cyclin A) | Ki [2] | IC50 (U2-OS) | IC90 (U2-OS) | IC50 (HCT116) | IC90 (HCT116) | IC50 (Saos-2) | IC90 (Saos-2) | % inhibition of growth in parentheses after >25 (U2-OS) | % inhibition of growth in parentheses after >25 (HCT116; concentration not given) | % inhibition of growth in parentheses after >25 (Saos-2; concentration not given)
17 | CC(C)(C)OC(=O)N1CCN(c2ccc(Nc3nc(N)c(C(=O)c4c(F)cccc4F)s3)cc2)CC1 [C(101), 4-Amino-2-[4-(1-tert-butoxycarbonyl-piperazine-4-yl)-phenylamino]-thiazol-5-yl-(2,6-difluorophenyl)-methanone] | 0.103 µM | 0.3 µM | 0.32 µM |  |  |  |  |  |  |  |  | 
